Laboratory results taken from US10662203B2, “Pyrido[2,3-b]indole compounds for the treatment and prophylaxis of bacterial infection” (Hoffmann-La Roche Inc., priority 2017, dated 2020).
≈ marks a conversion by molar mass, not a printed value.

Columns and labels:
[1] = system: A. baumannii (ATCC17978); assay: 50% growth inhibitory concentration (IC50) determination assay; assay type: cell-based; settings: Acinetobacter baumannii, ATCC17978, A. baumannii ATCC17978; Iso-Sensitest broth; 0.098 = detection limit
How it was run: (§1)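 Growth was tracked as optical density at 600 nm every 20 minutes for 16 h at 35±2° C, giving IC50 values. Inocula of ~5×10^5 CFU/mL in Iso-Sensitest broth faced two-fold compound dilutions spanning 50 to 0.097 μM final.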

[2] = system: K. pneumoniae (ATCC10031); assay: as above; assay type: cell-based; settings: Klebsiella pneumoniae, Iso-Sensitest broth, 0.098 = detection limit
How it was run: as §1

[3] = system: S. aureus (ATCC29213); assay: as above; assay type: cell-based; settings: Staphylococcus aureus, Iso-Sensitest broth, 0.098 = detection limit
How it was run: as §1

[4] = Lyophilisation solubility assay (LYSA); assay type: physicochemical; settings: 0.05 M phosphate buffer, HPLC-UV; for solubility thermodynamic: phosphate buffer, pH 6.5, aqueous buffer, thermodynamic from solid
Method: Lyophilisation Solubility Assay (LYSA):
The solubility of compounds of present invention was assessed by LYSA assay. Samples were prepared in duplicate from 10 mM DMSO stock solutions (20 μL) diluted in 30 μL pure DMSO. After evaporation of DMSO with a centrifugal vacuum evaporator, the residue was dissolved in 0.05 M phosphate buffer (150 μL, pH 6.5), which was stirred for one hour and shook for two hours. After one night, the solution was filtered using a microtiter filter plate. Then the filtrate and its 1/10 dilution were analyzed by HPLC-UV.

## CNc1cc(F)cc2c1[nH]c1ncc(-c3cnc4c(c3)c(=O)c(C(=O)O)cn4C)c(N3CC4[C@H](CCCN4C)C3)c12 (some centres unmarked) [Example 1.110]
[1]
  IC50: 0.074 µM
[2]
  IC50: < 0.098 µM
[3]
  IC50: < 0.098 µM
[4]
  solubility thermodynamic: 71 µg/mL (≈ 128 µM)

## CCNn1cc(C(=O)O)c(=O)c2cc(-c3cnc4[nH]c5c(NC)cc(F)c(F)c5c4c3N3CC[C@H]4CN(C)CC43)cnc21 (some centres unmarked) [Example 1.291]
[1]
  IC50: 0.157 µM
[2]
  IC50: < 0.098 µM
[3]
  IC50: < 0.098 µM
[4]
  solubility thermodynamic: 138 µg/mL (≈ 234 µM)

## CCn1cc(C(=O)O)c(=O)c2cc(-c3cnc4[nH]c5c(NC)cc(F)cc5c4c3N3CC[C@H]4CN(C)CC43)cnc21 (some centres unmarked) [Example 1.289]
[1]
  IC50: 0.21 µM
[2]
  IC50: < 0.098 µM
[3]
  IC50: < 0.098 µM
[4]
  solubility thermodynamic: 113 µg/mL (≈ 203 µM)

## CNc1cc(F)c(F)c2c1[nH]c1ncc(-c3cnc4c(c3)c(=O)c(C(=O)O)cn4NC)c(N3CCC4(CF)CN(C)CC34)c12 (centres unmarked) [Example 1.125]
[1]
  IC50: 0.079 µM
[2]
  IC50: < 0.098 µM
[3]
  IC50: < 0.098 µM
[4]
  solubility thermodynamic: 262 µg/mL (≈ 432 µM)

## CNc1cc(F)c(F)c2c1[nH]c1ncc(-c3cnc4c(c3)c(=O)c(C(=O)O)cn4C)c(N3CC[C@@H]4C3CN4C)c12 (some centres unmarked) [Example 1.248]
[1]
  IC50: 0.729 µM
[2]
  IC50: < 0.098 µM
[3]
  IC50: 0.199 µM
[4]
  solubility thermodynamic: 222 µg/mL (≈ 407 µM)

## CNc1cc(F)c(F)c2c1[nH]c1ncc(-c3cnc4c(c3)c(=O)c(C(=O)O)cn4C)c(N3CCC(N(C)CCO)C3)c12 (centres unmarked) [Example 1.200]
[1]
  IC50: 0.57 µM
[2]
  IC50: < 0.098 µM
[3]
  IC50: 0.1 µM
[4]
  solubility thermodynamic: 69 µg/mL (≈ 119 µM)

## CNc1cc(F)c(F)c2c1[nH]c1ncc(-c3cnc4c(c3)c(=O)c(C(=O)O)cn4C)c(N3CCC4(CCN4C)C3)c12 (centres unmarked) [Example 1.237]
[1]
  IC50: 0.194 µM
[2]
  IC50: < 0.098 µM
[3]
  IC50: < 0.098 µM
[4]
  solubility thermodynamic: 145 µg/mL (≈ 259 µM)

## CNc1cc(F)c(F)c2c1[nH]c1ncc(-c3cnc4c(c3)c(=O)c(C(=O)O)cn4C)c(N3C[C@H]4CCC[C@@H](N(C)C)[C@H]4C3)c12 [Example 1.175]
[1]
  IC50: 0.277 µM
[2]
  IC50: < 0.098 µM
[3]
  IC50: < 0.098 µM
[4]
  solubility thermodynamic: 113 µg/mL (≈ 188 µM)

## CNc1cc(Cl)cc2c1[nH]c1ncc(-c3cnc4c(c3)c(=O)c(C(=O)O)cn4NC)c(N3CC[C@H]4CN(C)CC43)c12 (some centres unmarked) [Example 1.264]
[1]
  IC50: 0.267 µM
[2]
  IC50: < 0.098 µM
[3]
  IC50: < 0.098 µM
[4]
  solubility thermodynamic: 159 µg/mL (≈ 277 µM)

## CNc1cc(F)c(F)c2c1[nH]c1ncc(-c3cnc4c(c3)c(=O)c(C(=O)O)cn4C)c(N3C[C@@H](O)[C@@H](N(C)C)C3)c12 [Example 1.223]
[1]
  IC50: 0.298 µM
[2]
  IC50: < 0.098 µM
[3]
  IC50: < 0.098 µM
[4]
  solubility thermodynamic: 472 µg/mL (≈ 838 µM)

## CNc1cc(F)cc2c1[nH]c1ncc(-c3cnc4c(c3)c(=O)c(C(=O)O)cn4NCC(F)(F)F)c(N3CCC[C@H]3CN(C)C)c12 [Example 1.153]
[1]
  IC50: 0.388 µM
[2]
  IC50: < 0.098 µM
[3]
  IC50: 0.372 µM
[4]
  solubility thermodynamic: 201 µg/mL (≈ 321 µM)

## CNc1cc(F)c(F)c2c1[nH]c1ncc(-c3cnc4c(c3)c(=O)c(C(=O)O)cn4COC)c(N3CC[C@H]4CN(C)C[C@H]43)c12 (relative stereo) [Example 5.06, 6-[4-[cis-5-methyl-2,3,3a,4,6,6a-hexahydropyrrolo[2,3-c]pyrrol-1-yl]-5,6-difluoro-8-(methylamino)-9H-pyrido[2,3-b]indol-3-yl]-1-(methoxymethyl)-4-oxo-1,8-naphthyridine-3-carboxylic acid]
[1]
  IC50: 0.295 µM
[2]
  IC50: < 0.098 µM
[3]
  IC50: < 0.098 µM
[4]
  solubility thermodynamic: 366 µg/mL (≈ 621 µM)

## CNc1cc(F)c(F)c2c1[nH]c1ncc(-c3cnc4c(c3)c(=O)c(C(=O)O)cn4C)c(N3CCCC(N(C)CCO)C3)c12 (centres unmarked) [Example 1.201]
[1]
  IC50: 0.852 µM
[2]
  IC50: < 0.098 µM
[3]
  IC50: 0.189 µM
[4]
  solubility thermodynamic: 124 µg/mL (≈ 210 µM)

## CNc1cc(F)c(F)c2c1[nH]c1ncc(-c3cnc4c(c3)c(=O)c(C(=O)O)cn4C)c(N3CC[C@H]4CN(CCOC)CC43)c12 (some centres unmarked) [Example 1.96]
[1]
  IC50: 0.269 µM
[2]
  IC50: < 0.098 µM
[3]
  IC50: < 0.098 µM
[4]
  solubility thermodynamic: 169 µg/mL (≈ 280 µM)

## CNc1cc(F)c(F)c2c1[nH]c1ncc(-c3cnc4c(c3)c(=O)c(C(=O)O)cn4C)c(N3CC[C@@H](CN(C)C)C3)c12 [Example 1.255]
[1]
  IC50: 0.13 µM
[2]
  IC50: < 0.098 µM
[3]
  IC50: < 0.098 µM
[4]
  solubility thermodynamic: 99 µg/mL (≈ 176 µM)

## CNc1cc(F)c(F)c2c1[nH]c1ncc(-c3cnc4c(c3)c(=O)c(C(=O)O)cn4C)c(N3CCC4C3CCCN4C)c12 (centres unmarked) [Example 1.246]
[1]
  IC50: 0.317 µM
[2]
  IC50: < 0.098 µM
[3]
  IC50: 0.193 µM
[4]
  solubility thermodynamic: > 612 µg/mL

## CNc1cc(F)c(F)c2c1[nH]c1ncc(-c3cnc4c(c3)c(=O)c(C(=O)O)cn4C)c(N3CCCC(N(C)C)C3)c12 (centres unmarked) [Example 1.215]
[1]
  IC50: 0.252 µM
[2]
  IC50: 0.103 µM
[3]
  IC50: 0.114 µM
[4]
  solubility thermodynamic: 48 µg/mL (≈ 85.5 µM)

## CNc1cc(F)c(F)c2c1[nH]c1ncc(-c3cnc4c(c3)c(=O)c(C(=O)O)cn4C)c(N3CCC(C)(CN(C)C)C3)c12 (centres unmarked) [Example 1.101]
[1]
  IC50: 0.15 µM
[2]
  IC50: < 0.098 µM
[3]
  IC50: < 0.098 µM
[4]
  solubility thermodynamic: 214 µg/mL (≈ 372 µM)

## CNc1cc(F)cc2c1[nH]c1ncc(-c3cnc4c(c3)c(=O)c(C(=O)O)cn4C)c(N3CC[C@H]4CCN(C)C4C3)c12 (some centres unmarked) [Example 1.211]
[1]
  IC50: 0.11 µM
[2]
  IC50: < 0.098 µM
[3]
  IC50: < 0.098 µM
[4]
  solubility thermodynamic: 205 µg/mL (≈ 369 µM)

## CNc1cc(F)c(F)c2c1[nH]c1ncc(-c3cnc4c(c3)c(=O)c(C(=O)O)cn4C)c(N3CC[C@H]4CN(C)C4C3)c12 (some centres unmarked) [Example 1.213]
[1]
  IC50: 0.102 µM
[2]
  IC50: < 0.098 µM
[3]
  IC50: < 0.098 µM
[4]
  solubility thermodynamic: 26 µg/mL (≈ 46.5 µM)

## CNc1cc(F)cc2c1[nH]c1ncc(-c3cnc4c(c3)c(=O)c(C(=O)O)cn4NC)c(N3CCC(F)(CN(C)C)C3)c12 (centres unmarked) [Example 1.92]
[1]
  IC50: 0.14 µM
[2]
  IC50: < 0.098 µM
[3]
  IC50: < 0.098 µM
[4]
  solubility thermodynamic: 88 µg/mL (≈ 153 µM)

## CNc1cc(F)c(F)c2c1[nH]c1ncc(-c3cnc4c(c3)c(=O)c(C(=O)O)cn4C)c(N3CC4[C@@H](C3)CN4C)c12 (some centres unmarked) [Example 1.252]
[1]
  IC50: 0.361 µM
[2]
  IC50: < 0.098 µM
[3]
  IC50: < 0.098 µM
[4]
  solubility thermodynamic: 41 µg/mL (≈ 75.2 µM)

## CNc1cc(F)c(F)c2c1[nH]c1ncc(-c3cnc4c(c3)c(=O)c(C(=O)O)cn4NC)c(N3CCC4(F)CN(C)CC34)c12 (centres unmarked) [Example 1.121]
[1]
  IC50: 0.215 µM
[2]
  IC50: < 0.098 µM
[3]
  IC50: < 0.098 µM
[4]
  solubility thermodynamic: 58 µg/mL (≈ 97.9 µM)

## CNc1cc(Cl)c(F)c2c1[nH]c1ncc(-c3cnc4c(c3)c(=O)c(C(=O)O)cn4C)c(N3CC[C@H]4CN(C)CC43)c12 (some centres unmarked) [Example 1.267]
[1]
  IC50: 0.072 µM
[2]
  IC50: < 0.098 µM
[3]
  IC50: < 0.098 µM
[4]
  solubility thermodynamic: 104 µg/mL (≈ 181 µM)

## CNc1cc(F)c(F)c2c1[nH]c1ncc(-c3cnc4c(c3)c(=O)c(C(=O)O)cn4C)c(N3CC[C@H](CN(C)C)C3)c12 [Example 1.256]
[1]
  IC50: 0.219 µM
[2]
  IC50: < 0.098 µM
[3]
  IC50: < 0.098 µM
[4]
  solubility thermodynamic: 202 µg/mL (≈ 360 µM)

## CNc1cc(F)c(F)c2c1[nH]c1ncc(-c3cnc4c(c3)c(=O)c(C(=O)O)cn4NC)c(N3CC[C@@H]4C3CCN4C)c12 (some centres unmarked) [Example 1.249]
[1]
  IC50: 0.272 µM
[2]
  IC50: < 0.098 µM
[3]
  IC50: < 0.098 µM
[4]
  solubility thermodynamic: 487 µg/mL (≈ 848 µM)

## CNc1cc(F)c(F)c2c1[nH]c1ncc(-c3cnc4c(c3)c(=O)c(C(=O)O)cn4C)c(N3CCN4CCC[C@@H]4C3)c12 [Example 1.220]
[1]
  IC50: 0.141 µM
[4]
  solubility thermodynamic: 79 µg/mL (≈ 141 µM)

## CNc1cc(F)c(F)c2c1[nH]c1ncc(-c3cnc4c(c3)c(=O)c(C(=O)O)cn4C)c(N3C[C@H](OC)[C@@H](N(C)C)C3)c12 [Example 1.158]
[1]
  IC50: 0.23 µM
[4]; pH 6.5
  Lysa: 49 µg/mL

## CNc1cc(F)c(F)c2c1[nH]c1ncc(-c3cnc4c(c3)c(=O)c(C(=O)O)cn4C)c(N3CCN4CCC[C@H]4C3)c12 [Example 1.219]
[1]
  IC50: 0.267 µM
[4]
  solubility thermodynamic: 73 µg/mL (≈ 130 µM)
